This is an account of results in US20080200345A1, “HIGH THROUGHPUT METHOD TO IDENTIFY LIGANDS FOR CELL ATTACHMENT” (priority 2003, published 2008).

The assay deals with MC3T3-E1 cells. Nature of the assay: ECM screen: adhesion of MC3T3-E1 osteoblast cells to immobilized adhesion ligands (nuclei count). Type of assay: cell-based. As to conditions: best factors approach. From the text: A statistical design was developed with special consideration of the surface chemistry requirements. In particular, in this experiment the scenario shown in FIG. 6 was used, wherein the overall adhesion ligand density was kept constant from well to well and only the adhesion ligand composition was allowed to change. In other words, the concentration of a single adhesion ligand could be different from well to well, but each well has the same amount of adhesion ligand immobilized overall. This scenario is further described above. An example of such design is shown in the spreadsheet in FIG. 7. The top row in FIG. 7 lists the 10 cell adhesion ligands used in this particular screen. The first column is a list of the experimental points that translate into a well in the 96-well plate, e.g., 52 wells in this case. The numbers in the spreadsheet are the actual volumes (in µL) of factor that is added to a particular well. In this particular design, factors get added to the wells at three volumes, e.g., 5 µL, 25 µL, or 50. mu.L. The total well volume in this case is 50 µL. Thus, for wells where one factor is added at 50 µL, the final well composition will comprise a single adhesion ligand covalently immobilized on the well surface. Accordingly, if 25 µL of a factor is added to a well, a second factor is added at 25 µL also, and the final well composition will comprise a mixture of two different cell adhesion ligands covalently immobilized on the well surface. When 5 µL of a factor are added, nine other factors are added at 5 µL each, as well, thus resulting in wells that comprise a mixture of all 10 cell adhesion ligands on the well surface. These experimental points containing all 10 adhesion ligands are called “mid points” and are an integral part of the statistical design in this example.
With reference now to FIG. 8, a 96-well plate layout is shown, which was translated from the particular statistical design shown in FIG. 7. In particular, the 96-well plate includes the well compositions indicated in FIG. 7, e.g., cell adhesion ligand combinations immobilized at the bottom of each well. In particular, the experimental runs in FIG. 7 correspond to rows/columns in FIG. 8, as follows: runs 1-10 in the design in FIG. 7 represent row B, columns 2-11, respectively on the plate layout in FIG. 8; runs 11-20 represent row C, columns 2-11; runs 21-30 represent row D, columns 2-11; runs 31-40 represent row E, columns 2-11; runs 41-50 represent row F, columns 2-11 and runs 51 and 52 represent row G, columns 2 and 3, respectively. As shown by the statistical design in FIG. 7 and the corresponding 96-well plate layout in FIG. 8, it is an embodiment of the present invention that, in addition to mixtures of agents, single agents can be placed in the receptacles. […]

In the case of laminin, the “Effect on cell count, mixture-model analysis (Ln(cell count-10% serum+1) vs. deviation from reference blend, FIG. 12)” value is “positive effect” and the “Effect on cell count, mixture-model analysis (Ln(cell count-no serum+1) vs. deviation from reference blend, FIG. 11)” value is reported as “increase the cell count”.

As for poly-L-lysine, the “Effect on cell count, mixture-model analysis (Ln(cell count-10% serum+1) vs. deviation from reference blend, FIG. 12)” value is recorded as “diminishes” and the “Effect on cell count, mixture-model analysis (Ln(cell count-no serum+1) vs. deviation from reference blend, FIG. 11)” value is reported as “marginal effect”.
